Measured values: patent US20080269276A1, “COMPOSITIONS USEFUL FOR TREATING IRRITABLE BOWEL SYNDROME” (Dynogen Pharmaceuticals, Inc., priority 2007, published 2008)
Entries after “also recorded” stand apart in the source; their conditions may differ.

Tests used:
[1] = system: males and females with IBS-c; assay: Phase 2a randomized, double-blind, placebo-controlled clinical trial: weekly symptom-based assessments (OSGA, abdominal discomfort/pain, constipation, satisfaction with bowel habit); format: in vivo, human
Description: The Clinical Trial reported herein was a Phase 2a, Randomized, Double-Blind, Placebo-Controlled Study. In the Study, 91 males and females with IBS-c were administered doses of DDP733 (0.2, 0.5, 0.8 and 1.4 mg) and placebo, three times a day for 28 days (4 weeks). Study Details: • Phase 2a, randomized, double-blinded, placebo controlled parallel group design • 91 males and females with IBS-c • 7 week study with 4 weeks of treatment • Five treatment groups: • DDP733: 0.2 mg, 0.5 mg, 0.8 mg or 1.4 mg three times a day (approximately 30 to 60 minutes before breakfast, lunch and dinner) • PLACEBO: Three times a day (approximately 30 to 60 minutes before breakfast, lunch and dinner). • Assess effect on relief of IBS-c using symptom-based assessment including the following weekly questions: Overall response (OSGA); Abdominal discomfort/pain; Constipation; and Satisfaction with bowel habit. • Assess effect on pharmacodynamic measure (gastrointestinal transit) at baseline and week 4 using radio-opaque markers. • Establish safety profile. Key Subject Inclusion Criteria: • 1. Male or female from 18 to 65 years of age, inclusive • 2. IBS-c for at least three months prior to randomization as defined by the subject's response to the criteria below adapted from the Rome II • Modular Questionnaire: • a. Subject experiences discomfort or pain in the abdomen during at least 3 weeks (at least one day in each week) in the last 3 months. • b. Subject experiences one or more of the following: • i. Discomfort or pain that gets better or stops after a bowel movement • ii. Change in the usual number of bowel movements (either more or fewer) when the discomfort or pain starts • iii. Softer or harder stools than usual when the discomfort or pain starts • c. Patient experiences two or more of the following at least one-fourth (¼) of the occasions or days in the last three months: • i. Fewer than three bowel movements per week (0-2) • ii. Hard or lumpy stools • iii. Straining during a bowel movement • d. Patient experiences none of the following more than one-fourth (¼) of the occasions or days in the last three months: • i. More than three bowel movements a day (4 or more) • ii. Loose, mushy or watery stools • iii. Having to rush to the toilet to have a bowel movement • 3. Completion of at least six days of daily diary assessments in the week of screening prior to Visit 3 with a documented average stool consistency score of ≦2.5. Stool consistency was rated as 1=very hard, 2=hard, 3=formed, 4=loose, 5=watery. Clinical Symptoms were assessed using the following weekly questions: [table] […] Subjects were defined as Overall SGA responders, prior to the study, if: • 1. Somewhat relieved or better at 100% of SGAs (Response 3 at all weekly time points), or considerably/completely relieved for at least 50% of SGAs (Response 1 or 2 for at least 2 of the 4 weekly timepoints) or considerably/completely relieved at Week 4 (Response 1 or 2 at Week AND • 2. No more than 5 days of laxative use excluding bulk-forming laxatives over the 4-week treatment period.

[2] = system: males and females with IBS-c; assay: Phase 2a clinical trial: safety measurements (vital signs, adverse events, clinical laboratory testing, ECGs); format: in vivo, human; conditions: 0.2, 0.5, 0.8 or 1.4 mg three times a day for 28 days
Description: The Clinical Trial reported herein was a Phase 2a, Randomized, Double-Blind, Placebo-Controlled Study. In the Study, 91 males and females with IBS-c were administered doses of DDP733 (0.2, 0.5, 0.8 and 1.4 mg) and placebo, three times a day for 28 days (4 weeks). Study Details: • Phase 2a, randomized, double-blinded, placebo controlled parallel group design • 91 males and females with IBS-c • 7 week study with 4 weeks of treatment • Five treatment groups: • DDP733: 0.2 mg, 0.5 mg, 0.8 mg or 1.4 mg three times a day (approximately 30 to 60 minutes before breakfast, lunch and dinner) • PLACEBO: Three times a day (approximately 30 to 60 minutes before breakfast, lunch and dinner). Safety measurements included monitoring of vital signs and adverse events, clinical laboratory testing and performance of electrocardiograms (ECGs).

[3] = overall responders within the 1.4 mg, 3 times a day treatment group

## O=C(N[C@H]1CN2CCC1CC2)c1c[nH]c2ccsc2c1=O [DDP733, (R)—N-1-azabicyclo[2.2.2]oct-3-yl-4,7-dihydro-7-oxothieno[3,2-b]pyridine-6-carboxamide]
[1]; 1.4 mg three times a day (4.2 mg/day), oral, 4-week treatment, IBS-c subjects, placebo about 15%
  subjects reporting overall symptom relief (Overall SGA responders, OSGA): 54%
[1]; 1.4 mg three times a day (4.2 mg/day), Pearson chi squared test
  statistical significance on clinical endpoint overall symptom relief (OSGA): Statistical significance (using the Pearson chi squared test) was achieved
[1]; 1.4 mg three times a day, one week post-treatment (FIG. 2)
  OSGA clinical response at one week post-treatment: lost (i.e., returned to the level of placebo); also recorded: loss of response (return to level of placebo response)
[1]; 4.2 mg/day dose, Questionnaires 2, 3 and 4
  other weekly subject global assessments (abdominal discomfort/pain, constipation, satisfaction with bowel habit): consistent pattern of improvement
[1]; 4.2 mg/day group, responders
  diarrhea reported by responders during the treatment period: no responders reported any diarrhea
[1]; 4.2 mg/day group, responders, treatment period
  laxative use among responders showing overall symptom relief: relief was achieved in all responders without the use of laxatives
[1]; [3]
  constipation and satisfaction with bowel habit: also improved on treatment
  weekly pain response (Variable 2, abdominal discomfort/pain): a decrease in weekly pain response was observed
[2]
  drug related adverse events (nausea, pruritis and rash): mainly mild-moderate, transient in nature and required no intervention
  lab or ECG abnormalities: no pattern of lab or ECG abnormalities
